PubChem BioAssay (NCI)
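Interpolation was linear, between the two tested concentrations surrounding the appropriate level; five concentrations were tested over 48 hours in 96-well plates. The concentration for full growth arrest is given as TGI.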

Tests used:
Experiment in all cases: NCI anticancer screen, dose series, 48 h
KM12 colon = system: KM12 colon
DU-145 prostate = system: DU-145 prostate
HCT-15 colon = system: HCT-15 colon
NCI-H460 lung = system: NCI-H460 lung
OVCAR-3 ovarian = system: OVCAR-3 ovarian
OVCAR-5 ovarian = system: OVCAR-5 ovarian
TK-10 renal = system: TK-10 renal
COLO 205 colon = system: COLO 205 colon
MDA-MB-231 breast = system: MDA-MB-231 breast
CCRF-CEM leukemia = system: CCRF-CEM leukemia

Row | Structure (SMILES) | TGI (KM12 colon) [µM] | TGI (DU-145 prostate) [µM] | TGI (HCT-15 colon) [µM] | TGI (NCI-H460 lung) [µM] | TGI (OVCAR-3 ovarian) [µM] | TGI (OVCAR-5 ovarian) [µM] | TGI (TK-10 renal) [µM] | TGI (COLO 205 colon) [µM] | TGI (MDA-MB-231 breast) [µM] | TGI (CCRF-CEM leukemia) [µM]
1 | O=C(O)C1Cc2ccccc2OC1=O (stereo not drawn) | > 100 | > 100 | > 100 | > 100 | > 100 | > 100 | > 100 | > 100 | > 100 | 
2 | CCOC(=O)/C(=C\NC#N)c1nc2ccccc2[nH]1 | > 100 | > 100 | > 100 | > 100 | > 100 | > 100 | > 100 | > 100 |  | 
3 | C[n+]1c(-c2ccc(/C=N/Nc3n[nH]c(=S)n3N/N=C/c3ccc(-c4cn5ccccc5[n+]4C)cc3)cc2)cn2ccccc21 | > 100 |  | > 100 | > 100 |  | > 100 | > 100 | > 100 | > 100 | > 100
4 | CC[S+](C)c1ccc(-c2c3nc(c(-c4ccc([S+](C)CC)cc4)c4ccc([nH]4)c(-c4ccc([S+](C)CC)cc4)c4nc(c(-c5ccc([S+](C)CC)cc5)c5ccc2[nH]5)C=C4)C=C3)cc1 (stereo not drawn) | > 100 |  | > 100 | > 100 | > 100 | 65.8 |  | > 100 |  | > 100
5 | CC(=O)O[C@H]1CC[C@H]2[C@@H]3CC[C@H]4Nc5c(cnn5S(C)(=O)=O)C[C@]4(C)[C@H]3CC[C@]12C | > 100 | > 100 | > 100 | > 100 | 78.1 | > 100 |  | > 100 | > 100 | > 100
6 | CCOC(=O)C1CCCC1S(=O)(=O)c1ccc(C)cc1 (stereo not drawn) | > 100 | > 100 | > 100 | > 100 | > 100 | > 100 | > 100 | > 100 | > 100 | > 100
7 | COc1ccc(C2c3c(-c4ccccc4)nn(-c4ccccc4)c3Oc3ncn(N)c(=N)c32)cc1OC (stereo not drawn) | 3.33 | 8.78 | 4.06 | 3.27 | 2.95 | 13.5 | 4.24 | 3.53 | 3.8 | > 100
8 | Cc1ccc(-c2nc3n(c2/C=N\N=C(N)N)CCS3)cc1 | 28.5 | 26.8 | 31.8 | 32 |  | 30.1 | 33.1 | 27.7 | 29.9 | 55.9
9 | CC(=N\N=C\c1ccccn1)/C(C)=N/N=C/c1ccccn1 | > 100 | > 100 | > 100 | > 100 | > 100 | > 100 | > 100 | > 100 | > 100 | > 100
10 | CCc1c(-c2coc(CC/C(C)=C/c3ccccc3)n2)oc(OC)c(C)c1=O | > 100 |  | > 55.5 | > 100 | > 100 | > 100 | > 100 | > 47.8 |  | > 100
11 | CN1CCN(CCCCNc2cc3c4ccccc4c(NCCCCN4CCN(C)CC4)cc3c3ccccc23)CC1 | 3.06 | 3.14 | 2.88 | 3.2 | 8.5 | 12.5 | 18.4 | 14.3 | 2.89 | 3.07
